Results taken from US20200157145A1, “NEUTRAL-CATIONIC PEPTOIDS AND USES THEREOF” (Stealth BioTherapeutics Corp, priority 2018, published 2020).

System: isolated guinea pig heart exposed to global ischemia
Assay: Cardiac ischemia-reperfusion injury in isolated perfused guinea pig heart (global no-flow ischemia 20 min, reperfusion 120 min)
Experimental: Procedures for the use of guinea pigs are in accordance with the guidelines established by the American Physiological Society. Adult male guinea pigs (200-300 g) will be anesthetized with a ketamine/xylazine cocktail (85/15 mg mL, respectively; ip delivery). Upon the absence of reflexes to ensure a deep plane of anesthesia, hearts will be excised via midline thoracotomy and immersed in ice-cold saline. Hearts will be cannulated by the aorta and perfused with a modified Krebs-Henseleit buffer containing (in mM): 118 NaCl, 24 NaHCO3, 4.75 KCl, 1.2 KH2PO4, 1.2 MgSO4, 2.0 CaCl2, and 10 glucose (gassed with 95/5% O2/CO2). Hearts will be placed in a buffer-filled perfusion chamber and maintained at 37° C. for the duration of the experiments.
Following the initiation of perfusion, hearts will be instrumented for the simultaneous observation of mechanical and electrical function. A buffer-filled latex balloon will be inserted into the left ventricle (via the mitral valve) for the measurement of left ventricular developed pressure, with balloon volume adjusted to establish an end-diastolic pressure of 5-8 mmHg. Three electrodes will be placed into the buffer-filled perfusion chamber for the measurement of volume-conducted ECG. A pre-established protocol of electrode placement will be utilized to obtain a signal analogous to Lead II of a typical 12-lead ECG. All physiological parameters will be continuously monitored and stored on a personal computer using commercially available software (Chart, AD Instruments).
After a 10-minute equilibration period, hearts will be divided into the following different treatment groups: 1. Control followed by I/R; 2. Administration of 1 nM ηArg-η2′6′-Dmt-ηLys-ηPhe-NH2 in the perfusate both before and after index ischemia; 3. Post-ischemic administration of 1 nM ηArg-η2′6′-Dmt-ηLys-ηPhe-NH2 using both a bolus dose (also 1 nM, administered immediately prior to reperfusion) and ηArg-η2′6′-Dmt-ηLys-ηPhe-NH2 in the reperfusion solution; 4. Positive control using ischemic preconditioning; 3 cycles of 5 min I/R before index ischemia).
Hearts will be exposed to global no-flow ischemia by stopping perfusion for 20 minutes. At the end of the index ischemia, static buffer from the perfusion lines will be washed out (via an accessory port proximal to the aortic cannula) and reperfusion ensued for 120 minutes. Administration of all compounds in the perfusate will be accomplished via dissolving the compound(s) in solution prior to administration. The reperfusion bolus dose will be delivered to the heart via syringe through a drug-delivery port just above the aortic cannula. At the end of the 2 h reperfusion protocol, the LV will be dissected, sliced into 5 mm-thick slices, incubated in triphenyltetrazolium chloride (TTC) for 10 minutes (37° C.), and digitally photographed for subsequent infarct size analysis. Infarct sizes are expressed as the infarcted area as a percentage of the LV (in the global ischemia model, the entire LV constitutes the zone-at-risk).

[1] = peptoid 0.01 nM, 0.1 nM, cyclosporin-A 0.2 μM

ηArg-η2′6′-Dmt-ηLys-ηPhe-NH2
Incidence of VT/VF (ventricular tachycardia and/or fibrillation) (0.01 nM/0.1 nM(30 min R)): protection against the incidence of VT/VF | Infarct size (infarcted area as a percentage of the LV) (1 nM or 0.1 nM or 0.001 nM or 0.01 nM/0.1 nM(30 min R), 20 min global ischemia, compared to control group): lower incidence of infarction (infarction size) | Baseline coronary flow rates (groups receiving 0.01 nM): slightly lower than other groups | Baseline heart rate [1]: no discernable effects | Baseline left ventricular developed pressure [1]: no discernable effects | Baseline rates of contraction/relaxation [1]: no discernable effects | Coronary flow rates (peptoid 1 nM, 0.1 nM, 0.01 nM to 0.1 nM, cyclosporin-A 0.2 uM, whole time or at reperfusion, vs control): no differences in coronary flow rates
